Consider 17 compounds from US20260022118A1, “HETEROCYCLIC COMPOUNDS AS NRAS INHIBITORS” (Board of Regents, The University of Texas System, priority 2023, published 2026).

Some results are limits rather than exact numbers.

One experiment has as its target NRAS G12D C118S (Homo sapiens (Human), UniProt P01111, C118S/G12D). Kind of experiment: NRas G12D Surface Plasmon Resonance (SPR) binding assay. Conditions: Avi-tagged biotinylated NRAS G12D C118S on streptavidin chip, 25° C., 1:1 kinetic or steady-state fit. The method, then:
NRas G12D Surface Plasmon Resonance (SPR) Binding Assay
This Example illustrates that exemplary compounds and salts thereof described herein bind to NRAS G12D as measured by surface plasmon resonance (SPR).
Two liters of 1.03× running buffer (1.03×HBS-P+pH 7.4, containing 0.0103 M HEPES, 0.1545 M NaCl, 0.0515% v/v Surfactant P20 (Cytiva®, BR100671); 5.15 mM MgCl2 (Invitrogen, AM9530G); 0.515 mM TCEP, pH 8.0 (GoldBio®, TCEP25)) was prepared and filter sterilized using a 0.22 μm filter. A 1-L volumetric flask was filled partway with this buffer. A 30-mL volumetric flask was used to measure 30 mL of 100% DMSO (Sigma Aldrich®, 41639-100ML) which was added to the 1-L flask. The solution in the 1-L flask was brought up to 1 L with 1.03× buffer, resulting in a 1.0× assay running buffer containing 1.0×HBS-P+, 5 mM MgCl2, […], and 3% DMSO. Remaining 1.03× buffer was used for preparation of samples and immobilization running buffer.
Samples were prepared in a standard conical-bottomed 384-well microplate by adding 2 μL 10 mM DMSO cpd stock to each well, followed by 8 μL DMSO. A control compound was selected based off of its relatively “fast” kinetics that could be fitted by 1:1 kinetic fitting, as well as by steady-state fitting. Control wells for periodic injection to assess protein activity throughout the assay were also assembled, by diluting 10 mM compound 1:30 in DMSO, then adding 20 μL to the appropriate wells, such that the final concentration of compound would be 10 μM, and the final concentration of DMSO would be 3%. A Biomek™ FXP Laboratory Automation Workstation was used to stamp 20 μL DMSO into all sample wells—minus the control wells—according to the plate map, and then serially dilute 1:3 by mixing and aspirating 10 μL, delivering into the 20 μL of DMSO in the next well, resulting in 10-point serial dilution curves. A Biotek™ Multiflo EL406 Washer Dispenser was used to deliver 80 μL of 1.03× buffer to the compound plate. The plate was mixed 10× by FX, then a final dilution was performed by stamping 18 μL from the compound plate into a 384-well deep-well plate that had also been previously filled with 102 μL 1.03× buffer via the Multiflo. The solution in the deep-well plate was mixed 10× by FX, then sealed with a 384-well microplate foil from Cytiva® (Cytiva® BR100577) and placed on an orbital shaker for 30 minutes at 1000 RPM to ensure complete mixing of the DMSO solution in the buffer. A solvent correction curve was also prepared by making a 4% DMSO solution in 1.03× buffer and diluting in 1.03× buffer such that there were eight solutions of decreasing DMSO concentrations resulting in a high DMSO concentration of 4% and a low concentration of 2% DMSO.
Immobilization running buffer was prepared in a 200-mL volume by diluting 1.03× running buffer prepared above to 1.0×. A Cytiva® Streptavidin chip (Cytiva®, 29104992) was docked into a Biacore™ S200 instrument, and the instrument was then primed three times into the immobilization running buffer. A protein stock of Avi-tagged NRAS G12D C118S was prepared in-house and biotinylated using the Bulk BirA: BirA biotin-protein ligase bulk reaction kit from Avidity (Avidity®, Bulk BirA). Upon completion of the biotinylation reaction, Amicon® ultra 0.5-mL Centrifugal Filters with a MWCO of 3 k Da (Millipore® UFC500396) were used to reduce the free biotin concentration below 0.1 μM in the protein sample over the course of eight desalting cycles, according to the manufacturer's protocol. Resulting protein concentration was not measured directly as an accurate protein concentration is not required for immobilizing protein on the chip surface; however, a theoretical yield of ≤1.5 mg/mL was estimated based off of retained volumes during the desalting process. Reagents for immobilization were prepared as instructed in the Biacore™ 5200 Control Software Immobilization Wizard, including solutions of 1 M NaCl in 50 mM NaOH, and 1 M NaCl in 50 mM NaOH and 50% isopropyl alcohol. […]

For experiment [1], the system named is THP-1 cells expressing G12D (NRAS G12D). The experiment in a line: Inhibition of NRAS G12D-mediated phosphorylation of ERK (AlphaLISA p-ERK1/2) in THP-1 cells. Conditions: Homo sapiens, THP-1, 2 h, 2 hours incubation, HBSS with 0% or 10% FBS, p-ERK1/2 (Thr202/Tyr204) AlphaLISA, read-out: pERK THP-1 IC50. The class given is cell-based. In short, it runs like this: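 THP-1 cells expressing NRAS G12D, seeded in HBSS with 0% or 10% FBS, were exposed to test compound (1% DMSO final) for 2 h. p-ERK1/2 (Thr202/Tyr204) read by AlphaLISA SureFire Ultra. IC50 from curves normalized to no-inhibitor (100%) and 1 μM trametinib (0%) controls.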
For orientation: Bead proximity is the source of the signal in Alpha formats.

NRAS G12D C118S, sequence (P01111 whole entry G12D/C118S): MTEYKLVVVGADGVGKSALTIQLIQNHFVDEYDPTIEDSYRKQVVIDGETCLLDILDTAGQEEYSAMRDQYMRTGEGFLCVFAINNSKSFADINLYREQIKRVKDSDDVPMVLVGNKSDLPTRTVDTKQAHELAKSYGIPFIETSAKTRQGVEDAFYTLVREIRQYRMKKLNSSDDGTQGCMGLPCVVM

As for `C#Cc1c(F)ccc2cc(O)cc(-c3ncc4c([C@H]5[C@@H]6CNC[C@@H]65)nn(C5CC5)c4c3F)c12` [Example 4, 4-(3-((1R,5S,6r)-3-azabicyclo[3.1.0]hexan-6-yl)-1-cyclopropyl-7-fluoro-1H-pyrazolo[4,3-c]pyridin-6-yl)-5-ethynyl-6-fluoronaphthalen-2-ol 2,2,2-trifluoroacetate], the Kd – broadly, a measure of binding affinity in units of concentration – on NRAS G12D C118S turned out to be 0.0205 µM. Further, the 50% inhibitory concentration (IC50) (usually the concentration that inhibits the measured activity by half) in experiment [1] was found to be 0.394 µM.
For `C#Cc1c(F)ccc2cc(O)cc(-c3ncc4c([C@H]5[C@@H]6CNC[C@@H]65)cn(C5CC5)c4c3F)c12` [Example 5, 4-(3-((1R,5S,6s)-3-azabicyclo[3.1.0]hexan-6-yl)-1-cyclopropyl-7-fluoro-1H-pyrrolo[3,2-c]pyridin-6-yl)-5-ethynyl-6-fluoronaphthalen-2-ol], in that order: 0.0101 µM and 0.269 µM.
The like results for `C#Cc1c(F)ccc2cc(O)cc(-c3ncc4c(N5CC6CCC(C5)N6)nn(CC)c4c3F)c12` [Example 8, 4-(3-(3,8-diazabicyclo[3.2.1]octan-3-yl)-1-ethyl-7-fluoro-1H-pyrazolo[4,3-c]pyridin-6-yl)-5-ethynyl-6-fluoronaphthalen-2-ol] were, in that order, 1.92 µM and 11.1 µM.
The like results for `C#Cc1c(F)ccc2cc(O)cc(-c3ncc4c(N5CC6CCC(C5)N6)nn(C)c4c3F)c12` [Example 13, 4-(3-(3,8-diazabicyclo[3.2.1]octan-3-yl)-7-fluoro-1-methyl-1H-pyrazolo[4,3-c]pyridin-6-yl)-5-ethynyl-6-fluoronaphthalen-2-ol] were, in that order, 0.891 µM and 6.74 µM.
At NRAS G12D C118S, `C#Cc1c(F)ccc2cc(O)cc(-c3ncc4c([C@H]5[C@@H]6CNC[C@@H]65)c(C)n(C)c4c3F)c12` [Example 21, 4-(3-((1R,5S,6s)-3-azabicyclo[3.1.0]hexan-6-yl)-7-fluoro-1,2-dimethyl-1H-pyrrolo[3,2-c]pyridin-6-yl)-5-ethynyl-6-fluoronaphthalen-2-ol] returned a Kd of 1.84 µM. Also, the IC50 in experiment [1] was 13 µM.
On to `C#Cc1c(F)ccc2cc(O)cc(-c3ncc4c([C@H]5[C@@H]6CNC[C@@H]65)nn(C(C)C)c4c3F)c12` [Example 24, 4-(3-((1R,5S,6r)-3-azabicyclo[3.1.0]hexan-6-yl)-7-fluoro-1-isopropyl-1H-pyrazolo[4,3-c]pyridin-6-yl)-5-ethynyl-6-fluoronaphthalen-2-ol], for which the affinity at NRAS G12D C118S, expressed as Kd, was 0.824 µM. Moreover, in experiment [1], the IC50 was 10.7 µM.
For `C#Cc1c(F)ccc2cc(O)cc(-c3ncc4c(N5CC6CCC5CN6)nn(C)c4c3F)c12` (stereo not shown) [Example 26, 4-(3-(2,5-diazabicyclo[2.2.2]octan-2-yl)-7-fluoro-1-methyl-1H-pyrazolo[4,3-c]pyridin-6-yl)-5-ethynyl-6-fluoronaphthalen-2-ol], in that order: 0.0738 µM and 2.07 µM.
The like results for `C#Cc1c(F)ccc2cc(O)cc(-c3ccc4c([C@H]5[C@@H]6CNC[C@@H]65)nn(C)c4c3F)c12` [Example 27, 4-(3-((1R,5S,6r)-3-azabicyclo[3.1.0]hexan-6-yl)-7-fluoro-1-methyl-1H-indazol-6-yl)-5-ethynyl-6-fluoronaphthalen-2-ol] were, in that order, 3.18 µM and 9.56 µM.
The like results for `C#Cc1c(F)ccc2cc(O)cc(-c3ncc4c(N5CC6CC5CN6)nn(C)c4c3F)c12` (stereo not shown) [Example 28, 4-(3-(2,5-diazabicyclo[2.2.1]heptan-2-yl)-7-fluoro-1-methyl-1H-pyrazolo[4,3-c]pyridin-6-yl)-5-ethynyl-6-fluoronaphthalen-2-ol] were, in that order, 1.1 µM and 11.9 µM.
As to `C#Cc1c(F)ccc2cc(O)cc(-c3c(F)cc4c([C@H]5[C@@H]6CNC[C@@H]65)cn(C)c4c3F)c12` [Example 29, 4-(3-((1R,5S,6s)-3-azabicyclo[3.1.0]hexan-6-yl)-5,7-difluoro-1-methyl-1H-indol-6-yl)-5-ethynyl-6-fluoronaphthalen-2-ol], at NRAS G12D C118S, the Kd stood at 0.965 µM. In experiment [1], the IC50 is 3.1 µM.
The like results for `C#Cc1c(F)ccc2cc(O)cc(-c3ncc4c(N5C[C@@H]6CC[C@H]5CN6)nn(C)c4c3F)c12` [Example 30, 4-(3-((1S,4S)-2,5-diazabicyclo[2.2.2]octan-2-yl)-7-fluoro-1-methyl-1H-pyrazolo[4,3-c]pyridin-6-yl)-5-ethynyl-6-fluoronaphthalen-2-ol] were, in that order, 0.0519 µM and 1.19 µM.
On to `C#Cc1c(F)ccc2cc(O)cc(-c3ncc4c(N5CC6CCCC(C5)N6)nn(C)c4c3F)c12` [Example 31, 4-[3-(3,9-diazabicyclo[3.3.1]nonan-3-yl)-7-fluoro-1-methyl-pyrazolo[4,3-c]pyridin-6-yl]-5-ethynyl-6-fluoro-naphthalen-2-ol], for which the Kd at NRAS G12D C118S came out at 3.43 µM. In experiment [1], the IC50 came to 18.1 µM.
For `C#Cc1c(F)ccc2cc(O)cc(-c3ncc4c(N5CC(N(C)C)C5)nn(C)c4c3F)c12` [Example 33, 4-[3-[3-(dimethylamino)azetidin-1-yl]-7-fluoro-1-methyl-pyrazolo[4,3-c]pyridin-6-yl]-5-ethynyl-6-fluoro-naphthalen-2-ol], in that order: 8.75 µM and greater than 50 µM.
The like results for `C#Cc1c(F)ccc2cc(O)cc(-c3ncc4c(N5CC6CC(C5)N6)nn(C)c4c3F)c12` [Example 34, 4-[3-(3,6-diazabicyclo[3.1.1]heptan-3-yl)-7-fluoro-1-methyl-pyrazolo[4,3-c]pyridin-6-yl]-5-ethynyl-6-fluoro-naphthalen-2-ol] were, in that order, 0.613 µM and 5.98 µM.
On to `C#Cc1c(F)ccc2cc(O)cc(-c3ncc4c(N5CC6CCCC5CN6)nn(C)c4c3F)c12` (stereo not shown) [Example 36, 4-[3-(6,8-diazabicyclo[3.2.2]nonan-6-yl)-7-fluoro-1-methyl-pyrazolo[4,3-c]pyridin-6-yl]-5-ethynyl-6-fluoro-naphthalen-2-ol], for which the Kd at NRAS G12D C118S is 4.03 µM. Besides, in experiment [1], the IC50 turned out to be 12.8 µM.
The like results for `C#Cc1c(F)ccc2cc(O)cc(-c3ncc4c(c(C)cn4C4=CC5CCC4CN5)c3F)c12` (stereo not shown) [Example 38, 4-[1-(2-azabicyclo[2.2.2]oct-5-en-5-yl)-4-fluoro-3-methyl-pyrrolo[2,3-c]pyridin-5-yl]-5-ethynyl-6-fluoro-naphthalen-2-ol] were, in that order, 3.99 µM and 18.3 µM.
For `C#Cc1c(F)ccc2cc(O)cc(-c3ncc4c(c(C)cn4C4CC5CCC4CN5)c3F)c12` (stereo not shown) [Example 39, 4-[1-(2-azabicyclo[2.2.2]octan-5-yl)-4-fluoro-3-methyl-pyrrolo[2,3-c]pyridin-5-yl]-5-ethynyl-6-fluoro-naphthalen-2-ol], in that order: 0.435 µM and 4.82 µM.
